Experimental data: publication PMC10620772, “Design, synthesis, and biological evaluation of new pyrimidine-5-carbonitrile derivatives as novel anti-cancer, dual EGFR^WT/COX-2 inhibitors with docking studies” (RSC Advances, 2023)

Columns and labels:
Assay type in all cases: cell-based, human
CCRF-CEM = assay: NCI60 antitumor screening; details: 10 μM one-dose
HL-60(TB) = assay: NCI60 antitumor screening; details: 10 μM one-dose
K-562 = assay: NCI60 antitumor screening; details: 10 μM one-dose
MOLT-4 = assay: NCI60 antitumor screening; details: 10 μM one-dose
RPMI-8226 = assay: NCI60 antitumor screening; details: 10 μM one-dose
SR = assay: NCI60 antitumor screening; details: 10 μM one-dose, Table 1
A549/ATCC = assay: NCI60 antitumor screening; details: 10 μM one-dose
EKVX = assay: NCI60 antitumor screening; details: 10 μM one-dose
HOP-62 = assay: NCI60 antitumor screening; details: 10 μM one-dose
HOP-92 = assay: NCI60 antitumor screening; details: 10 μM one-dose
NCI-H226 = assay: NCI60 antitumor screening; details: 10 μM one-dose
NCI-H23 = assay: NCI60 antitumor screening; details: 10 μM one-dose
NCI-H322M = assay: NCI60 antitumor screening; details: 10 μM one-dose
NCI-H460 = assay: NCI60 antitumor screening; details: 10 μM one-dose
NCI-H522 = assay: NCI60 antitumor screening; details: 10 μM one-dose
COLO 205 = assay: NCI60 antitumor screening; details: 10 μM one-dose
HCC-2998 = assay: NCI60 antitumor screening; details: 10 μM one-dose
HCT-116 = assay: NCI60 antitumor screening; details: 10 μM one-dose
HCT-15 = assay: NCI60 antitumor screening; details: 10 μM one-dose
HT29 = assay: NCI60 antitumor screening; details: 10 μM one-dose
KM12 = assay: NCI60 antitumor screening; details: 10 μM one-dose
SW-620 = assay: NCI60 antitumor screening; details: 10 μM one-dose
SF-268 = assay: NCI60 antitumor screening; details: 10 μM one-dose
SF-295 = assay: NCI60 antitumor screening; details: 10 μM one-dose
SF-539 = assay: NCI60 antitumor screening; details: 10 μM one-dose
SNB-19 = assay: NCI60 antitumor screening; details: 10 μM one-dose
SNB-75 = assay: NCI60 antitumor screening; details: 10 μM one-dose, Table 1
U251 = assay: NCI60 antitumor screening; details: 10 μM one-dose
LOX IMVI = assay: NCI60 antitumor screening; details: 10 μM one-dose
MALME-3M = assay: NCI60 antitumor screening; details: 10 μM one-dose
M14 = assay: NCI60 antitumor screening; details: 10 μM one-dose
MDA-MB-435 = assay: NCI60 antitumor screening; details: 10 μM one-dose
SK-MEL-2 = assay: NCI60 antitumor screening; details: 10 μM one-dose
SK-MEL-28 = assay: NCI60 antitumor screening; details: 10 μM one-dose
SK-MEL-5 = assay: NCI60 antitumor screening; details: 10 μM one-dose
UACC-257 = assay: NCI60 antitumor screening; details: 10 μM one-dose
UACC-62 = assay: NCI60 antitumor screening; details: 10 μM one-dose
IGROV1 = assay: NCI60 antitumor screening; details: 10 μM one-dose
OVCAR-3 = assay: NCI60 antitumor screening; details: 10 μM one-dose
OVCAR-4 = assay: NCI60 antitumor screening; details: 10 μM one-dose
OVCAR-5 = assay: NCI60 antitumor screening; details: 10 μM one-dose
OVCAR-8 = assay: NCI60 antitumor screening; details: 10 μM one-dose
NCI/ADR-RES = assay: NCI60 antitumor screening; details: 10 μM one-dose
SK-OV-3 = assay: NCI60 antitumor screening; details: 10 μM one-dose
786–0 = assay: NCI60 antitumor screening; details: 10 μM one-dose
A498 = assay: NCI60 antitumor screening; details: 10 μM one-dose
ACHN = assay: NCI60 antitumor screening; details: 10 μM one-dose
CAKI-1 = assay: NCI60 antitumor screening; details: 10 μM one-dose
RXF 393 = assay: NCI60 antitumor screening; details: 10 μM one-dose
SN12C = assay: NCI60 antitumor screening; details: 10 μM one-dose
TK-10 = assay: NCI60 antitumor screening; details: 10 μM one-dose
UO-31 = assay: NCI60 antitumor screening; details: 10 μM one-dose
PC-3 = assay: NCI60 antitumor screening; details: 10 μM one-dose
DU-145 = assay: NCI60 antitumor screening; details: 10 μM one-dose
MCF7 = assay: NCI60 antitumor screening; details: 10 μM one-dose
MDA-MB-231/ATCC = assay: NCI60 antitumor screening; details: 10 μM one-dose
HS 578T = assay: NCI60 antitumor screening; details: 10 μM one-dose, Table 1
BT-549 = assay: NCI60 antitumor screening; details: 10 μM one-dose
T-47D = assay: NCI60 antitumor screening; details: 10 μM one-dose
MDA-MB-468 = assay: NCI60 antitumor screening; details: 10 μM one-dose
NCI60 cell lines panel = assay: NCI60 antitumor screening, full panel; details: 10 μM one-dose, mean over NCI60
In short: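 Single-concentration screen at 10 μM across the NCI60 panel (leukaemia, NSCLC, colon, CNS, melanoma, ovarian, renal, prostate, breast). Results are expressed as percent growth inhibition (GI%) of treated lines.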

N#Cc1c(-c2ccc(F)cc2)nc(SCc2ccc(F)cc2)nc1N1CCOCC1 [4b, 2-((4-Fluorobenzyl)thio)-4-(4-fluorophenyl)-6-morpholinopyrimidine-5-carbonitrile]
GI% (CCRF-CEM): 12.89% | GI% (HL-60(TB)): 15.01% | GI% (K-562): 16.20% | GI% (K-562; Table 1): — (GI value > 70%) | GI% (MOLT-4): — (GI% < 10) | GI% (RPMI-8226): — (GI% < 10) | GI% (SR): — (GI value > 70%) | GI% (A549/ATCC): 31.03% | GI% (EKVX): 39.92% | GI% (HOP-62; Table 1): 75.65% | GI% (HOP-92): 65.67% | GI% (NCI-H226): 51.64% | GI% (NCI-H226; Table 1): — (GI value > 70%) | GI% (NCI-H23): 28.19% | GI% (NCI-H322M): 21.55% | GI% (NCI-H460): 26.13% | GI% (NCI-H522): 45.02% | GI% (COLO 205): — (GI% < 10) | GI% (HCC-2998): 12.64% | GI% (HCT-116): 33.96% | GI% (HCT-15): 20.05% | GI% (HT29): — (GI% < 10) | GI% (KM12): 12.78% | GI% (SW-620): 14.48% | GI% (SF-268): 56.58% | GI% (SF-295): 63.10% | GI% (SF-539): 50.95% | GI% (SF-539; Table 1): — (GI value > 70%) | GI% (SNB-19): 56.32% | GI% (SNB-75): 82.51% | GI% (U251): 52.85% | GI% (LOX IMVI): 23.57% | GI% (MALME-3M): 41.38% | GI% (M14): — (GI% < 10) | GI% (MDA-MB-435): — (GI% < 10) | GI% (SK-MEL-2): 21.29% | GI% (SK-MEL-28): 14.16% | GI% (SK-MEL-5): 25.68% | GI% (UACC-257): 22.89% | GI% (UACC-62): 30.66% | GI% (IGROV1): — (GI% < 10) | GI% (OVCAR-3): 24.80% | GI% (OVCAR-4): 39.53% | GI% (OVCAR-4; Table 1): — (GI value > 70%) | GI% (OVCAR-5): 16.89% | GI% (OVCAR-8): 45.16% | GI% (NCI/ADR-RES): 36.47% | GI% (SK-OV-3): 60.37% | GI% (786–0; Table 1): 75.34% | GI% (A498): 28.08% | GI% (ACHN): 53.35% | GI% (CAKI-1): 69.32% | GI% (RXF 393): 58.43% | GI% (RXF 393; Table 1): — (GI value > 70%) | GI% (SN12C): 27.12% | GI% (TK-10): 22.42% | GI% (UO-31): 13.97% | GI% (PC-3): 28.37% | GI% (DU-145): 22.16% | GI% (MCF7): 36.26% | GI% (MDA-MB-231/ATCC): 49.52% | GI% (HS 578T): 74.34% | GI% (BT-549): 35.72% | GI% (T-47D): 26.75% | GI% (MDA-MB-468): 37.89% | Mean GI% (NCI60 cell lines panel): 34.42%

N#Cc1c(-c2ccc(F)cc2)nc(SCc2ccc([N+](=O)[O-])cc2)nc1N1CCOCC1 [4c, 4-(4-Fluorophenyl)-6-morpholino-2-((4-nitrobenzyl)thio) pyrimidine-5-carbonitrile]
GI% (CCRF-CEM): 22.80% | GI% (HL-60(TB)): 17.28% | GI% (K-562): 23.12% | GI% (K-562; Table 1): — (GI value > 70%) | GI% (MOLT-4): 26.34% | GI% (RPMI-8226): 19.73% | GI% (SR): — (GI value > 70%) | GI% (A549/ATCC): 36.61% | GI% (EKVX): 60.74% | GI% (HOP-62): 65.34% | GI% (HOP-62; Table 1): — (GI value > 70%) | GI% (HOP-92): 63.28% | GI% (NCI-H226; Table 1): 76.22% | GI% (NCI-H23): 25.17% | GI% (NCI-H322M): 17.30% | GI% (NCI-H460): 22.56% | GI% (NCI-H522): 58.72% | GI% (COLO 205): — (GI% < 10) | GI% (HCC-2998): — (GI% < 10) | GI% (HCT-116): 35.64% | GI% (HCT-15): 27.19% | GI% (HT29): 13.41% | GI% (KM12): 15.07% | GI% (SW-620): 19.46% | GI% (SF-268): 50.66% | GI% (SF-295): 58.52% | GI% (SF-539; Table 1): 73.77% | GI% (SNB-19): 53.96% | GI% (SNB-75): 92.38% | GI% (U251): 44.68% | GI% (LOX IMVI): 15.29% | GI% (MALME-3M): 57.24% | GI% (M14): 12.25% | GI% (MDA-MB-435): 16.03% | GI% (SK-MEL-2): 12.63% | GI% (SK-MEL-28): 17.90% | GI% (SK-MEL-5): 38.14% | GI% (UACC-257): 45.85% | GI% (UACC-62): 37.29% | GI% (IGROV1): 19.45% | GI% (OVCAR-3): 30.28% | GI% (OVCAR-4): 42.76% | GI% (OVCAR-4; Table 1): — (GI value > 70%) | GI% (OVCAR-5): — (GI% < 10) | GI% (OVCAR-8): 46.89% | GI% (NCI/ADR-RES): 58.37% | GI% (SK-OV-3): 55.46% | GI% (786–0): 69.78% | GI% (786–0; Table 1): — (GI value > 70%) | GI% (A498): 35.57% | GI% (ACHN): 48.98% | GI% (CAKI-1): 64.15% | GI% (RXF 393; Table 1): 90.21% | GI% (SN12C): 25.44% | GI% (TK-10): 15.83% | GI% (UO-31): 49.11% | GI% (PC-3): 40.85% | GI% (DU-145): 26.65% | GI% (MCF7): 41.49% | GI% (MDA-MB-231/ATCC): 52.93% | GI% (HS 578T): 84.42% | GI% (BT-549): 41.46% | GI% (T-47D): 44.55% | GI% (MDA-MB-468): 49.44% | Mean GI% (NCI60 cell lines panel): 39.54%
